Experimental data: patent US20110319484A1, “NEUROPROTECTIVE COMPOUNDS” (Parque Tecnologico de Ciencias de la Salud, priority 2009, published 2011)

Experiments:
cerebral cortex of mice = test: Neuroprotection in the cerebral cortex (lateral entorhinal and amygdaloid nuclei) of mice after kainate; format: in vivo, mice (FVB/NHan); conditions: KA 25 mg/kg i.p., NST0005 50 mg/kg i.p. daily
Method: All the animals included during the experimental process were 12-week old males of the FVB/NHan strain. The experiments were carried out strictly following the Guidance on the Operation of Animals (Scientific Procedures, Act. 1986). The animals had their respective quarantine period and were treated with maximum precaution to minimize possible contaminations for inoculations and handling.
Sixteen animals were used in this assay and the treatments were all carried out by intraperitoneal (i.p.) route with a volume of 100 μl, according to the following regimens: • i) PBS+PBS+PBS regimen: 4 animals were initially treated with PBS with a daily dose for 2 days, on the second day the animals were inoculated with a new dose of PBS and for the next 7 days with a daily dose of PBS. • ii) PBS+KA+PBS regimen: 6 animals were initially treated with PBS with a daily dose for 2 days, on the second day the animals were inoculated with a dose of kainate at 25 mg/kg and for the next 7 days with a daily dose of PBS. • iii) NST0005+KA+NST0005 regimen: 6 animals were initially treated with NST0005 with a daily dose of 50 mg/kg for 2 days, on the second day the animals were inoculated with a dose of kainate at 25 mg/kg and for the next 7 days with a daily dose of NST0005 at 50 mg/kg.
Once the treatment period of 7 days ended, the animals were sacrificed and the brains were dissected. […]

[1] = system: caspase 3/7 activation in SK-N-MC cells; test: Inhibition of camptothecin-induced caspase 3/7 activation (Apo-ONE kit); format: cell-based, human; conditions: Homo sapiens, 24 h pretreatment at 100 μg/ml, then camptothecin 50 μM 6 h
Method: To that end, the inhibition caused by (1S,3R,7S,8S,8aR)-1,2,3,7,8,8a-hexahydro-3,7-dimethyl-8-[2-[(2R,4R)-tetrahydro-4-hydroxy-6-oxo-2H-pyran-2-yl]ethyl-1-naphthalenyl 2,2-dimethylpropanoate (NST0005) of apoptosis caused by the treatment with camptothecin (Campt) on the SK-N-MC cells in culture was analyzed following the working conditions specified in section 3.1. Apoptosis can be quantified by measuring effector caspase activation. Caspases (proteins belonging to the cysteine-protease group) mediate the cleavage of a series of proteins triggering the signaling cascade which leads cells to apoptosis. […] The active cellular caspases 3 or 7 cause the cleavage of the substrate, emitting fluorescence which is read by means of a fluorometer.
The effect of the pretreatment of the NST0005 compound at 40 and 100 μg/ml on caspase 3/7 activation caused by 50 μM of camptothecin (Campt) in the SK-N-MC cells was thus analyzed. […]
The cells were incubated (at 37° C. and 5% CO2) with these treatments for 6 h, after which time the lysis buffer and the substrate rhodamine 110 were added at the concentrations specified by the manufacturer; they were incubated at room temperature for 30 minutes and the cells were then frozen at −20° C. overnight. They were thawed the next day and the reading of the plate was taken in a fluorometer at 499 nm for excitation and 521 nm for emission.

SK-N-MC cells = test: Inhibition of camptothecin-induced apoptosis by flow cytometry (propidium iodide, sub-G1); format: cell-based, human; conditions: Homo sapiens, camptothecin 50 μM, 6 h, at 4 μg/ml, read-out: maximum inhibition of apoptosis relating to apoptosis caused by camptothecin (flow cytometry)
Method: To that end, the inhibition caused by the NST0005 compound of apoptosis caused by the treatment with camptothecin (Campt) was analyzed. The SK-N-MC cells, not exceeding 15 passages, were seeded on 6-well plates treated for adherent cells with a cell concentration of 8×10^5 cells/well; 2 wells of the plate were seeded for each condition of the assay.
After 24 h of cell incubation at 37° C. and 5% CO2 the cell treatments were performed with 2 ml of total volume for the following conditions: (i), control (culture medium); (ii), camptothecin [50 μM]; (iii) camptothecin [50 μM] and Z-VAD-fmk [50 μM] (Alexis), as positive control of inhibition; and (iv), 50 μM camptothecin with NST0005 at different concentrations [4, 10, 40 and 100 μg/ml].
The cells were incubated (at 37° C. and 5% CO2) with these treatments for 6 h, after which time they were pooled together with their culture medium and centrifuged at 300×g for 5 minutes. The medium was removed, a washing was performed with phosphate buffered saline (PBS) and they were fixed for 2 minutes with 500 μl of 70% ethanol at −20° C. […] After this time, they were analyzed by flow cytometry, comparing the fluorescence of the propidium iodine against the amount of DNA. The percentage of apoptosis was measured on the sub-G1 region of each of the conditions. […]

Question: How did the “neuritic dystrophy in the cerebral cortex (MAP2)” value (cerebral cortex of mice) turn out when `C[C@H]1C=C2C=C[C@H](C)[C@H](CC[C@@H]3C[C@@H](O)CC(=O)O3)[C@H]2[C@@H](OC(=O)C(C)(C)C)C1` [NST0005] was run?
Answer: Its value is “significantly reduces neuronal damage by neuritic dystrophy”.

Question: And the “reactive astrogliosis in the cerebral cortex (GFAP)” value (cerebral cortex of mice)?
Answer: The value was “significantly prevents reactive astrogliosis”.

Question: What about the inhibition at 100 µg/mL [1] of the same compound?
Answer: Its inhibition at 100 µg/mL is 33%.

Question: What about the inhibition at 4 µg/mL (SK-N-MC cells) of the same compound?
Answer: The inhibition at 4 µg/mL was 17%.
